From ChEMBL document CHEMBL1156613, “Potent and selective pyrazole-based inhibitors of B-Raf kinase” (Bioorg Med Chem Lett, 2008) come the findings set out here.

For orientation: IC50 means the point on the concentration scale where inhibition reaches its midpoint. In general, thermodynamic solubility refers to solubility found after equilibrating the solid with the medium.

In brackets after ≈: the same amount, converted by molar mass. Activity calls are given as the source filed them. No cut-off for these calls is given here. Where only a bound is given, the exact number is not on record here.

Data set [1] deals with Mitogen-activated protein kinase; ERK1/ERK2 (Homo sapiens, UniProt P27361+P28482). Description: Inhibition of ERK1/2 phosphorylation in human MALME3M cells. The class given is cell-based.
For data set [2], the target named is Serine/threonine-protein kinase B-raf (Homo sapiens, UniProt P15056). Description: Inhibition of human recombinant B-Raf by fluorescence anisotropy.
Serine/threonine-protein kinase B-raf, sequence (P15056 whole entry): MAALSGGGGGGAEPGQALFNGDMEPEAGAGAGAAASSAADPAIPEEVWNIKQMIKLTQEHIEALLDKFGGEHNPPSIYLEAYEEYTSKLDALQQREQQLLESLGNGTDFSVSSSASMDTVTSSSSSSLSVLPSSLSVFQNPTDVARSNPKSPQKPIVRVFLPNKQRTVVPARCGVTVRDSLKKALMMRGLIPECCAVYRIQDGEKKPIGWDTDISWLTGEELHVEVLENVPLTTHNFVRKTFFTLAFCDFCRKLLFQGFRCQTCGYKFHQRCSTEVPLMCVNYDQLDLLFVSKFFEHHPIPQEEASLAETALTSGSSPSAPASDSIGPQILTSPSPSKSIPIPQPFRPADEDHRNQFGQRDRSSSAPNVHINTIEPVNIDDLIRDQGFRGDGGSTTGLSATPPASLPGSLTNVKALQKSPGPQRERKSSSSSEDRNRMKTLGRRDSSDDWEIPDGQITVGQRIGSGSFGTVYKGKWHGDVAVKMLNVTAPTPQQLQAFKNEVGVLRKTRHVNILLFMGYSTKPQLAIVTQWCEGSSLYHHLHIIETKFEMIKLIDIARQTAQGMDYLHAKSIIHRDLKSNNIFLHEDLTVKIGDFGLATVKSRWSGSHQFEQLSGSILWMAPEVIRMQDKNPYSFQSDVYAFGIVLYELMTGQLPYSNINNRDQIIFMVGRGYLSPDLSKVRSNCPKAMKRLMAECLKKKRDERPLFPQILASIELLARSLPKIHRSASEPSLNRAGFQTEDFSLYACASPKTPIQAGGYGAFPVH
For data set [3], the system named is Mus musculus. The experiment in a line: Inhibition of ERK phosphorylation in human LOX tumor xenografted mouse at 25 mg/kg, po after 1 hrs by Western blot method. In kind it is functional, organism-based. Also noted: dose 25 mg/kg. A general note: Xenograft models place foreign cells or tissue in a host animal.
The nature of data set [4]: Aqueous solubility at pH 6.5 by shake-flask method. In kind it is physicochemical. To be noted: aqueous medium.

On to `Cn1cc(-c2ccc3c(c2)CC/C3=N\O)c(-c2ccnc(N)c2)n1`, for which the IC50 in data set [1] came out at 1000 nM; in data set [2], 2.1 nM.

On to `O/N=C1\CCc2cc(-c3cn(C4CCNCC4)nc3-c3ccncc3)ccc21`, for which the IC50 amounted to 9 nM in data set [1] and 0.03 nM in data set [2]. Also, the outcome in data set [3] was inactive. The compound further showed a solubility (thermodynamic) in data set [4] of 52 µg/mL (≈ 139 µM).

As to `Cn1cc(-c2ccc3c(c2)CC/C3=N\O)c(-c2cccnc2)n1`, the IC50 in data set [2] amounted to 434 nM.

Regarding `Cn1ncc(-c2ccc3c(c2)CC/C3=N\O)c1-c1ccncc1`, the half-inhibitory concentration (IC50) in data set [1] is 165 nM; in data set [2], 0.48 nM.

For the compound `OCCn1cc(-c2ccc3c(c2)CC/C3=N\O)c(-c2ccncc2)n1`, the outcome in data set [3] was Active. Besides, the solubility (thermodynamic) in data set [4] is 76 µg/mL (≈ 227 µM).

For `O/N=C1\CCc2cc(-c3cn(CC4CCCNC4)nc3-c3ccncc3)ccc21` (stereo unspecified), the concentration for half-maximal inhibition (IC50) in data set [1] is 154 nM; in data set [2], 0.85 nM.

`O/N=C1\CCc2cc(-c3cn(C4CCOCC4)nc3-c3ccncc3)ccc21`: the half-inhibitory concentration (IC50) amounted to 48 nM in data set [1] and 0.22 nM in data set [2].

Regarding `Cn1cc(-c2ccc3c(c2)CC/C3=N\O)c(-c2ccncc2)n1`, the figures for the IC50 in data set [1] and in data set [2] were 33 nM and 0.02 nM, respectively.

With `CN(C)CCn1cc(-c2ccc3c(c2)CC/C3=N\O)c(-c2ccncc2)n1`, the IC50 came to 607 nM in data set [1] and 4.02 nM in data set [2].

Turning to `Cc1c[nH]nc1-c1ccc(-c2cn(C)nc2-c2ccncc2)cc1`, the IC50 in data set [1] is 18000 nM; in data set [2] it was 4.4 nM.

For `O/N=C1\CCc2cc(-c3cn(C4CCCC4)nc3-c3ccncc3)ccc21`, the figures for the IC50 in data set [1] and in data set [2] were 57 nM and 3.46 nM, respectively.

As for `O/N=C1\CCc2cc(-c3cn(CC4CCNCC4)nc3-c3ccncc3)ccc21`, the concentration for half-maximal inhibition (IC50) in data set [1] was 332 nM; in data set [2], 1.2 nM.

For `Cn1cc(-c2ccc3c(c2)CC/C3=N\O)c(-c2ccc3c(cnn3C)c2)n1`, the IC50 in data set [2] was determined as 970 nM.

For `NCCCn1cc(-c2ccc3c(c2)CC/C3=N\O)c(-c2ccncc2)n1`, the 50% inhibitory concentration (IC50) in data set [1] turned out to be 20 nM; in data set [2], 0.39 nM.

In the case of `O/N=C1\CCc2cc(-c3c[nH]nc3-c3ccncc3)ccc21`, the IC50 in data set [1] worked out at 53 nM; in data set [2], 0.15 nM.

With `Cn1cc(-c2ccc3c(c2)CN/C3=N/O)c(-c2ccncc2)n1`, the IC50 in data set [1] is 56 nM; in data set [2], less than 2 nM. In data set [4], this compound displayed a solubility (thermodynamic) of 590 µg/mL (≈ 1930 µM).

For the compound `Cn1cc(-c2ccc3c(c2)C(=O)NC3)c(-c2ccncc2)n1`, in data set [2], the IC50 amounted to 68.4 nM.

For `CCn1cc(-c2ccc3c(c2)CC/C3=N\O)c(-c2ccncc2)n1`, the results for the IC50 in data set [1] and in data set [2] were 18 nM and 0.57 nM, respectively.

For the compound `O/N=C1\CCc2cc(-c3cn([C@H]4CCC[C@H]4O)nc3-c3ccncc3)ccc21` (relative stereo), the IC50 in data set [1] was determined as 245 nM; in data set [2] it was 3.91 nM.

`CNC1CCCC(n2cc(-c3ccc4c(c3)CC/C4=N\O)c(-c3ccncc3)n2)C1` (stereo unspecified): the IC50 was 18 nM in data set [1] and 0.23 nM in data set [2].

Consider `OCC(CO)n1cc(-c2ccc3c(c2)CC/C3=N\O)c(-c2ccncc2)n1`, for which the IC50 in data set [1] was 171 nM; in data set [2], 0.56 nM.

`O/N=C1\CCc2cc(-c3cn([C@@H]4CCC[C@H](O)C4)nc3-c3ccncc3)ccc21` (relative stereo): the half-maximal inhibitory concentration (IC50) in data set [1] worked out at 7 nM; in data set [2], 0.04 nM. Moreover, the result in data set [3] was Active. This compound also displayed a thermodynamic solubility in data set [4] of 3 µg/mL (≈ 7.72 µM).

On to `OCC(O)Cn1cc(-c2ccc3c(c2)CC/C3=N\O)c(-c2ccncc2)n1` (stereo unspecified), for which the IC50 in data set [1] amounted to 22 nM; in data set [2], 0.87 nM.

For `Cn1cc(-c2ccc(/C(N)=N\O)cc2)c(-c2ccncc2)n1`, the IC50 in data set [1] stood at 20000 nM; in data set [2] it was 18.4 nM.

For the compound `Cn1cc(-c2ccc3c(c2)CC/C3=N\O)c(-c2cnco2)n1`, the results for the 50% inhibitory concentration (IC50) in data set [1] and in data set [2] were 2400 nM and 4.1 nM, respectively.

In the case of `NCCn1cc(-c2ccc3c(c2)CC/C3=N\O)c(-c2ccncc2)n1`, the IC50 in data set [1] stood at 119 nM; in data set [2], 2.4 nM.

In the case of `COCCn1cc(-c2ccc3c(c2)CC/C3=N\O)c(-c2ccncc2)n1`, the half-inhibitory concentration (IC50) was found to be 569 nM in data set [1] and 1.16 nM in data set [2].

As to `CN(C)CCCn1cc(-c2ccc3c(c2)CC/C3=N\O)c(-c2ccncc2)n1`, the IC50 was determined as 122 nM in data set [1] and 0.47 nM in data set [2].

Consider `Cn1cc(-c2ccc3c(c2)CC/C3=N\O)c(-c2ccnc(O)c2)n1`, for which the IC50 in data set [1] worked out at 800 nM; in data set [2], 2.9 nM.

With `CN1CCC(n2cc(-c3ccc4c(c3)CC/C4=N\O)c(-c3ccncc3)n2)CC1`, the IC50 in data set [1] was 10 nM; in data set [2] it was 0.34 nM.

Regarding `Cn1cc(-c2ccc(-c3cc[nH]n3)cc2)c(-c2ccncc2)n1`, the IC50 in data set [2] was determined as 68.4 nM.

With `OCCCn1cc(-c2ccc3c(c2)CC/C3=N\O)c(-c2ccncc2)n1`, the IC50 in data set [1] is 26 nM; in data set [2], 0.05 nM.

On to `O/N=C1\CCc2cc(-c3cn([C@@H]4CCC[C@@H](O)C4)nc3-c3ccncc3)ccc21` (relative stereo), for which the values for the IC50 in data set [1] and in data set [2] were 17 nM and 0.09 nM, respectively.

For `Cn1cc(-c2ccc3cn[nH]c3c2)c(-c2ccncc2)n1`, the IC50 in data set [2] was found to be 70 nM.

Turning to `Cn1cc(-c2ccc3c(c2)Cc2c[nH]nc2-3)c(-c2ccncc2)n1`, the IC50 in data set [1] amounted to 1900 nM; in data set [2], 1.5 nM.

As to `Cn1cc(-c2ccc3c(c2)CC/C3=N\O)c(-c2ccncn2)n1`, the values for the IC50 in data set [1] and in data set [2] were 1500 nM and 3.1 nM, respectively.

As for `Cn1cc(-c2ccc3c(c2)CCN/C3=N/O)c(-c2ccncc2)n1`, the values for the half-inhibitory concentration (IC50) in data set [1] and in data set [2] were 10000 nM and 16 nM, respectively.

For `O/N=C1\CCc2cc(-c3cn([C@H]4CCC[C@@H]4O)nc3-c3ccncc3)ccc21` (relative stereo), the figures for the IC50 in data set [1] and in data set [2] were 37 nM and 0.33 nM, respectively.
